Source: patent US6514963B2, “Methods for the inhibition of egg production in trematodes” (The Regents of the University of California, priority 2000, dated 2003)

Legend:
[1] = molecular target: T1, L channels of isolated skeletal muscle (Oryctolagus cuniculus, UniProt P07293); settings: read-out: concentration of calcium required for 50% inhibition (Ki) of verapamil binding; isolated skeletal muscle (Galizzi et al. 1984); cited from earlier work
T1 construct: host or cells: isolated skeletal muscle

Echinostoma caproni = settings: elevated concentrations (microgram range: verapamil 50-200, nifedipine 25-200, diltiazem 5-50 μg/ml), 24 hours, ANOVA
Schistosoma mansoni = Schistosoma mansoni in vitro egg production, eight day culture of worm pairs; format: cell-based

T1 sequence (P07293 whole entry): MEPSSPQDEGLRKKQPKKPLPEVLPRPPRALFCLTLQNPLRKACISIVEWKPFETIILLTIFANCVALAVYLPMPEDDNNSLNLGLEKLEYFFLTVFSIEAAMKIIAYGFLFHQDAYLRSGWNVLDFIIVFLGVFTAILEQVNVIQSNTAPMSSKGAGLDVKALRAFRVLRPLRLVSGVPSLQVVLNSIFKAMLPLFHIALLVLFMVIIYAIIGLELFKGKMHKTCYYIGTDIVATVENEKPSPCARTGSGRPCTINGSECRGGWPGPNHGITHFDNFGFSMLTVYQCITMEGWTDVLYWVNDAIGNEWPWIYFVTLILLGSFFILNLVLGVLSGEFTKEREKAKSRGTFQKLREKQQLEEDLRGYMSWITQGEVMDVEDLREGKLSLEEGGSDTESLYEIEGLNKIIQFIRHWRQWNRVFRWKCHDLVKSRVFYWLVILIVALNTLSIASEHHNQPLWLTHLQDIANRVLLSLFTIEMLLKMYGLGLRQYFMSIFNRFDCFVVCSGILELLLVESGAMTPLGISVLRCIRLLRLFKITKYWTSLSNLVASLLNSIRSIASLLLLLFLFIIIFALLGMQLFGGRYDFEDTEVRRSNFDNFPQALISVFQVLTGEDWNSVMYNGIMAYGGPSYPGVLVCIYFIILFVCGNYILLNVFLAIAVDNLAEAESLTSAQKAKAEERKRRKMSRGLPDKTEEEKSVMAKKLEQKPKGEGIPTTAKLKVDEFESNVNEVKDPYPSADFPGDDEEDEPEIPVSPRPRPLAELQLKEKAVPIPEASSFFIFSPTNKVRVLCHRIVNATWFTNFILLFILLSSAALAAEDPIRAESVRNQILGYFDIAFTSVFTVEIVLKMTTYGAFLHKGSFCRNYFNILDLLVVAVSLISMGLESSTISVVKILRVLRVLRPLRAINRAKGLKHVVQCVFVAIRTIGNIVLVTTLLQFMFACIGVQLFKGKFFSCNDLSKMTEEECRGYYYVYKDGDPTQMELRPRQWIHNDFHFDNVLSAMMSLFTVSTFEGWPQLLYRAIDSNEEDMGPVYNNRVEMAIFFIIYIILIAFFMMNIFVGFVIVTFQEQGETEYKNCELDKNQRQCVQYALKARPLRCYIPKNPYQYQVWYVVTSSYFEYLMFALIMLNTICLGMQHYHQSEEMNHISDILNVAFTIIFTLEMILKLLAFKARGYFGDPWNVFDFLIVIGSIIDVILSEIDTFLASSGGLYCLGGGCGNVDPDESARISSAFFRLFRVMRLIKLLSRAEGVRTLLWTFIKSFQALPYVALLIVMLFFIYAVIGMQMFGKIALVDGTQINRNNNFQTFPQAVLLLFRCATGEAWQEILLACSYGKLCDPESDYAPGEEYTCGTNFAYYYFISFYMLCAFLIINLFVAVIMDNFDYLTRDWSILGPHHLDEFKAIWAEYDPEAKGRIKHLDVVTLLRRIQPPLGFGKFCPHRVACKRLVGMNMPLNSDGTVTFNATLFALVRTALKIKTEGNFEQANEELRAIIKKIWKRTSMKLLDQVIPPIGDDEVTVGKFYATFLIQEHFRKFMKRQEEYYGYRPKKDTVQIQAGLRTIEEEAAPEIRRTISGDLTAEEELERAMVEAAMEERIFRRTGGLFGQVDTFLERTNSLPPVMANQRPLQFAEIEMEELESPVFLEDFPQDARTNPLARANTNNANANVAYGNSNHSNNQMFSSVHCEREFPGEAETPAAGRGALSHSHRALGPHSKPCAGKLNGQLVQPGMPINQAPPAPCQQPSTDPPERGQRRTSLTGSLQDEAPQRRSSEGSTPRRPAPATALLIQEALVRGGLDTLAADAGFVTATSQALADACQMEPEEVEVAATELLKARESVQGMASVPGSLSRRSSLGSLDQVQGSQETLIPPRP
T1 sequence (P13806 27-960 partner limits assumed): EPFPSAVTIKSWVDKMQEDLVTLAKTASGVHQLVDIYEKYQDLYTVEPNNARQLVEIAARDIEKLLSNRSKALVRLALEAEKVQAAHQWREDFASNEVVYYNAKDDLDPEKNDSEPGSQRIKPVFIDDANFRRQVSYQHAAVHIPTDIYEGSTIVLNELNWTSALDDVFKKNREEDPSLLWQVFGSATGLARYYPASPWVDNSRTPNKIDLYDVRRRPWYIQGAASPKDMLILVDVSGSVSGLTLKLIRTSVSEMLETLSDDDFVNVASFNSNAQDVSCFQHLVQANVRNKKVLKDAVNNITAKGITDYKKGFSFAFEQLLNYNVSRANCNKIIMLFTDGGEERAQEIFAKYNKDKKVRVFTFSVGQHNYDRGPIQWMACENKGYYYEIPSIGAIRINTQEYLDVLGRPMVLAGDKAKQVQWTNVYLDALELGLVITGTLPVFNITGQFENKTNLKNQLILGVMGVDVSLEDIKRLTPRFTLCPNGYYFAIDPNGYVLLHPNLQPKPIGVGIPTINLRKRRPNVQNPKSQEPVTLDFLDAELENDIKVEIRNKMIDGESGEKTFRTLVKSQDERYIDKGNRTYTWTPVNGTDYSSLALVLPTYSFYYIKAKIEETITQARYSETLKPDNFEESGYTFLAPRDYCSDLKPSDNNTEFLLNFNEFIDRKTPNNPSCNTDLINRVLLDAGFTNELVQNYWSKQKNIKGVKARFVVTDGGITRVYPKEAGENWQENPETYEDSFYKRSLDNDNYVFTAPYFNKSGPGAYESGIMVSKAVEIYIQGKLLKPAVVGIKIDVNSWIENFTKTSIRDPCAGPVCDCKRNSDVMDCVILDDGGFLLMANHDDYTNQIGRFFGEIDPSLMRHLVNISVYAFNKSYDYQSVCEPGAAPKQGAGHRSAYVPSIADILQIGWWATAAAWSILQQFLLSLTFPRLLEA
T1 sequence (P13806 961-1106 partner limits assumed): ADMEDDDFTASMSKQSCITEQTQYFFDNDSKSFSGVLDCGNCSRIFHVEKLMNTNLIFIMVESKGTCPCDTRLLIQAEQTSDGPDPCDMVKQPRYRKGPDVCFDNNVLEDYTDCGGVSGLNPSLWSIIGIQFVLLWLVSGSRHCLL
T1 sequence (P19517 whole entry partner): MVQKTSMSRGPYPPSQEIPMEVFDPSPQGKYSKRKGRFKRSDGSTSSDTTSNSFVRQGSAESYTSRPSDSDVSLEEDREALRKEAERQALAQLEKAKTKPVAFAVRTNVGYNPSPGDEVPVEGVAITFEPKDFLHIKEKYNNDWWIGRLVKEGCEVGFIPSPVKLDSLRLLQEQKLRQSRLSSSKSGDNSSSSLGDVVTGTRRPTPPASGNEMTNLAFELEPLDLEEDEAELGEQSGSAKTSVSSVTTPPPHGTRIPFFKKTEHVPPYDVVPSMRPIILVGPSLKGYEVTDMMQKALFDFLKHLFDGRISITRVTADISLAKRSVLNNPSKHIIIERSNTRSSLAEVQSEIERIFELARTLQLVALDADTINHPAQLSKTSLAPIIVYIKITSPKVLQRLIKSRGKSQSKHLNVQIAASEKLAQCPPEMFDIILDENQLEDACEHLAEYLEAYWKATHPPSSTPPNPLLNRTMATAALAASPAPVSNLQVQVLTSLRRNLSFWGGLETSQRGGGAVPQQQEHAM
T1 sequence (P19518 whole entry partner): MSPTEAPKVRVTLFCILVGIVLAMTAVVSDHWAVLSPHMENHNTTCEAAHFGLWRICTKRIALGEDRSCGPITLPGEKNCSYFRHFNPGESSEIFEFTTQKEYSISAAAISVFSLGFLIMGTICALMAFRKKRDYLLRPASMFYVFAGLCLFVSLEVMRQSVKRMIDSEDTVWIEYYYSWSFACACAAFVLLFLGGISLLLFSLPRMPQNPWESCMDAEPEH

SMILES	Ki [1] [µM]	effect on egg production compared to controls (Echinostoma caproni)	effect on proportion of worms which did not produce eggs until after 48 hours of culture (Schistosoma mansoni; 0.25 μg/ml)	effect on proportion of worms producing eggs in the three production categories (Schistosoma mansoni; 0.25 μg/ml and 2.5 μg/ml, Chi Square 4.15, p=0.386)	effect on proportion of worms which did not produce eggs until after 48 hours of culture (Schistosoma mansoni; 2.5 μg/ml, Fisher's exact test, p=0.013)	decrease in the total number of eggs produced by all worms of the treatment group (Schistosoma mansoni; 2.5 μg/ml, eight days) [%]	worms in the highest egg-production category (Schistosoma mansoni; 2.5 μg/ml, control worms 34%) [%]	proportion of non-producers (Schistosoma mansoni; 25 μg/ml as printed, control worms 17%) [%]	effect on proportion of non-producers, pairwise comparison with control (Schistosoma mansoni; 50 μg, Fisher Exact test, 2-tailed, p<0.0001)	decrease in the total number of eggs produced by all worms of the treatment group (Schistosoma mansoni; 50 μg/ml, eight days) [%]	egg production (Schistosoma mansoni; 50 μg/ml, eight days)	number of worms producing eggs 48+ Hours (Schistosoma mansoni; verapamil 0.25 μg/ml)	number of worms producing eggs within 48 Hours (Schistosoma mansoni; verapamil 0.25 μg/ml)	number of worms producing eggs 48+ Hours (Schistosoma mansoni; verapamil 2.5 μg/ml)	number of worms producing eggs within 48 Hours (Schistosoma mansoni; verapamil 2.5 μg/ml)	number of worms producing eggs 48+ Hours (Schistosoma mansoni; verapamil 50 μg/ml)	number of worms producing eggs within 48 Hours (Schistosoma mansoni; verapamil 50 μg/ml)
[Ca] [calcium]	~300																
COc1ccc(CCN(C)CCCC(C#N)(c2ccc(OC)c(OC)c2)C(C)C)cc1OC (stereo not drawn) [verapamil, α-[3-[[2-(3,4-dimethoxyphenyl)ethyl]methyl-amine]propyl]-3,4-dimethoxy-α-(1-methylethyl)-benzeneacetonitrile]		significantly inhibited	not	did not significantly affect	significantly increased	38	15	30	significantly affected egg production	100	no eggs were produced at any time	8	24	14	14	0	0
